In patent US11857579B2, “Composition for promoting the secretion of FGF21” (MORINAGA MILK INDUSTRY CO., LTD., priority 2018, dated 2024):

Tests used:
[1] = system: FGF21 gene in liver; assay: Expression of FGF21 gene in liver by RT-PCR after oral administration to neonatal mice; type: in vivo, C57BL/6J male mice
From the text: (§1) Bacterial cell powder (2.4×10^11 cfu/g) of Bifidobacterium breve M-16V (NITE BP-02622) triturated with starch was suspended in physiological saline to prepare a Bifidobacterium liquid of 2.5×10^9 cfu/ml.
(§2) Lactulose (manufactured by Morinaga Milk Industry Co., Ltd.), raffinose (product name: Nitten Rraffinose, manufactured by Nippon Beet Sugar Manufacturing Co., Ltd.), and galactooligosaccharide were mixed at a ratio by weight of 1:1:1 and diluted in distilled water to prepare an oligosaccharide stock solution having a total final concentration of 250 mg/ml. The galactooligosaccharide is obtained by removing monosaccharides and disaccharides from a commercial product (product name: Oligomate 55N, manufactured by Yakult Pharmaceutical Industry Co., Ltd.) and contains about 65% by weight of Galβ1-4Galβ1-4Glc (4′-galactosyl lactose) and about 15% by weight of Galβ1-6Galβ1-4Glc (6′-galactosyl lactose). […]
(§3) Each animal was subjected to anatomy at 21 days old and the serum and liver were taken out of the body. The FGF21 concentration in the serum and the expression of FGF21 gene in the liver were determined. The FGF21 concentration in the serum was measured with an ELISA kit (manufactured by R&D Systems). The expression of FGF21 gene in the liver was measured by RT-PCR. […]

[2] = system: FGF21; assay: FGF21 concentration in serum by ELISA after oral administration to neonatal mice; type: in vivo, C57BL/6J male mice; details: 100 μl once a day during 6 to 20 days old, serum taken at 21 days old
From the text: as §1, §2, §3

Bifidobacterium breve M-16V (NITE BP-02622) [Group B]
Expression of FGF21 gene in the liver compared with group A and group C ([1]; at 21 days old, versus group A (vehicle) and group C (oligosaccharide)): significantly higher | Expression of FGF21 gene in liver (values relative to the value of Group A which was taken as 100.0), Average ([1]; neonatal mice, 100 μl once a day during 6 to 20 days old, liver taken at 21 days old, RT-PCR, Group A (vehicle) = 100.0): 197.7 | FGF21 Concentration in serum, Average [2]: 397.3 pg/mL
